“Also recorded” adds a separate entry of the source. Like-named read-outs stand apart in the source and are kept apart here.
What was measured:
isolated rat heart [1] = tested on: isolated rat heart
Excerpt: Applying this approach, a perfused isolated heart may be inserted into an 11.5 tesla NMR magnet for spectroscopic analysis of high-energy phosphagens (ATP, phosphocreatine, and inorganic phosphate) in combination with collection of heart effluent and tissue, and functional assessment of contractility can be determined as measured by dP/dtmax and dP/dtmin, left ventricular developed pressure, heart rate, etc.
(§1) A heart, in this case isolated from rat and perfused using the Langendorff method, is image guided by 1 H magnetic resonance imaging and magnetic resonance spectroscopy is performed for ^31P found in the high energy phosphogens ATP, phosphocreatine (PCr), and inorganic phosphate (Pi) in an upright 11.7 Tesla NMR at 161.99 MHz (FIGS. 1 and 2).
(§2) The energetic spectra from the whole heart was averaged every 4 minutes before and after drug exposure. PCr, ATP alpha, beta, and gamma, and Pi peak height and area, and pH calculated from the resonance shift in Pi (pHi=pK+log [(go−gB)/gA−go)] […] Heart contractility (left ventricular pressure) and heart rate is simultaneously acquired on an Emka IOX data acquisition system.
^31P spectra is acquired for 20 minutes prior to drug application. The drug of interest is then applied for 1 hour followed by a 20 minute stress test using 0.1 um isoproteranol (a beta agonist) in the presence of the drug which causes increased contractility, relaxation, heart rate, and increased conduction velocity. This step is done to test the energy reserve of the heart after drug application. […] As a positive control, we use FCCP, a mitochondrial uncoupler that inhibits mitochondrial oxidative phosphorylation by disrupting the mitochondrial protein gradient.

isolated rat heart [2] = tested on: isolated rat heart; remark: listed apart in the source
Description: In combination with the functional assessment, whole heart energetics can be determined, measured as the changes in peak levels of ATP, phosphocreatine, and inorganic phosphate using NMR spectroscopy.
as §1, §2
^31P spectra is acquired for 20 minutes prior to drug application. The drug of interest is then applied for 1 hour followed by a 20 minute stress test using 0.1 um isoproteranol (a beta agonist) in the presence of the drug which causes increased contractility, relaxation, heart rate, and increased conduction velocity. This step is done to test the energy reserve of the heart after drug application.

[3] = drug applied for 1 hour, before stress test
[4] = during 20 minute stress test, 0.1 um isoproteranol in the presence of the drug

contractility (isolated rat heart [1]; doxorubicin 1 and 10 uM)	ATP (isolated rat heart [2]; doxorubicin 1 and 10 uM)	PCr (isolated rat heart [2]; doxorubicin 1 and 10 uM)	Pi (inorganic phosphate) (isolated rat heart [2]; doxorubicin 1 and 10 uM)	effects on contractility and energetic parameters in the stress test period (isolated rat heart [2]; doxorubicin 1 and 10 uM, isoproteranol stress test period)	phosphocreatine (isolated rat heart [2]; stress test with isoproteranol, versus control hearts)	Compound	contractility (dP/dtmax) (isolated rat heart [1]; [3])	contractility (isolated rat heart [1]; [4])	ATPγ peak (isolated rat heart [2]; [3])	PCr peak (isolated rat heart [2]; [3])	Pi peak (isolated rat heart [2]; [3])	ATPγ peak (isolated rat heart [2]; [4])	PCr peak (isolated rat heart [2]; [4])	Pi peak (isolated rat heart [2]; [4])
increases; also recorded: increasing	decreases	decreases	decreases	pronounced	pronounced drop	COc1cccc2c1C(=O)c1c(O)c3c(c(O)c1C2=O)C[C@@](O)(C(=O)CO)C[C@@H]3O[C@H]1C[C@H](N)[C@H](O)[C@H](C)O1 [doxorubicin]	–	–	–	–	–	–	–	–
–	–	–	–	–	–	carbony cyanide 4-(trifluoromethoxy) phenylhydrazone [FCCP]	declines	increased slightly	declines	declines	did not affect	declined further	dropped slightly	no effect

Reference: patent publication US9393324B2, “Use of 31P NMR spectroscopy of whole heart energetics for detection of drug-induced cardiotoxicity” (Battelle Memorial Institute, priority 2012, dated 2016)
